The values below come from patent publication US20140057323A1, “ENHANCED CELLODEXTRIN METABOLISM” (The Board of Trustees of the University of Illinois, priority 2011, published 2014).

For assay [1], the target named is T1, Neurospora crassa cellodextrin transporter CDT-1 (NCU00801), wild type, SEQ ID NO: 9, GFP-tagged, in S. cerevisiae D452-2 (Neurospora crassa, UniProt Q7SCU1).
T1 construct: [3H]-cellobiose uptake into whole cells
T1 sequence (Q7SCU1 1-579): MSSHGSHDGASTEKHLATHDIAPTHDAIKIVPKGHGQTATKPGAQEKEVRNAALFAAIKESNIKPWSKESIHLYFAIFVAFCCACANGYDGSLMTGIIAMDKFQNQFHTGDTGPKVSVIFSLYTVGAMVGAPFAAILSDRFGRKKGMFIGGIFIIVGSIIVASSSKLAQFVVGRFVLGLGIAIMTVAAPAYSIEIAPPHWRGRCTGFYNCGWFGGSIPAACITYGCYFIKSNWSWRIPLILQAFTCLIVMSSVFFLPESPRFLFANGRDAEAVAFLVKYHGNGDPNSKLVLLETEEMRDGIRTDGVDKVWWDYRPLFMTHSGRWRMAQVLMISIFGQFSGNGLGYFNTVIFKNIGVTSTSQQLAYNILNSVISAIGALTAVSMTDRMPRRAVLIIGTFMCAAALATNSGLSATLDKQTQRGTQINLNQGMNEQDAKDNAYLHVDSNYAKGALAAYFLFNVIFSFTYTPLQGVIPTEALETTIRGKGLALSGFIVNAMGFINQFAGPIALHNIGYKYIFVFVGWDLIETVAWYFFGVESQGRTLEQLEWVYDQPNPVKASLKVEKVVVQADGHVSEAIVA
Briefly: Transporter kinetics, [3H]-cellobiose uptake into yeast. The format is cell-based. The note with it: CDT-1 WT.
Experimental: Briefly, the yeast strain D452-2 transformed with mutant transporters was set-up at an OD (600 nm) of −0.2 in 50 mL of DOB-uracil and grown to an OD (600 nm) of ˜1. Cells were then harvested by centrifugation, washed 3× with 10 mLs of transport buffer (30 mM MES-NaOH [pH 5.6], 50 mM EtOH), and resuspended to a final OD (600 nm) of ˜40 in transport buffer. The GFP fluorescence of 100 μL of these cells was determined with excitation/emission wavelengths of 485/535 nm Beckman Coulter Paradigm™ plate reader. […] Reactions were stopped by spinning cells through the oil for 1 minute at 17,000 g, tubes were frozen in ethanol/dry ice, and tube-bottoms containing the cell-pellets were clipped off into 1 mL of 0.5 M NaOH. The pellets were solubilized overnight, 5 mL of Ultima Gold scintillation fluid added, and CPM determined in a Tri-Carb 2900TR scintillation counter.

Assay [2] has as its target S. cerevisiae hexokinase Glk1 (NP_009890) (Saccharomyces cerevisiae, UniProt P17709). Briefly: Effect of cellobiose on activity of purified hexokinase Glk1. In kind it is biochemical. The note with it: read-out: reduction of hexokinase activity by cellobiose. The method, then:
(§1) The amount of hexokinase activity in cell extracts was determined by coupling the production of glucose-6-phosphate to the reduction of NADP^+ by glucose-6-phosphate dehydrogenase. 10 μg of cell extract was added to 1 mL of an assay mixture consisting of 50 mM Tris-HCl [pH 8.0 at 30° C.], 13.3 mM MgCl2, 540 μM ATP, 20 μM NADP^+, 1 U S. cerevisiae glucose-6-phosphate dehydrogenase, and 112 mM glucose. The number of pmol of glucose-6-phosphate produced per second was calculated by multiplying the rate of increase at 340 nm by 1.85×10^3, a conversion that was established from a glucose-6-phosphate standard curve.
(§2) The Hxk1 (Accession: NP_116711), Hxk2 (Accession: NP_011261), and Glk1 (Accession: NP_009890) genes were expressed and purified in E. coli. First, the genes were cloned into the PmlI and XhoI restriction sites of the expression plasmid pET302. Hxk1 gene was amplified using the following primers: […]
(§3) These constructs were transformed into the BL21(DE3) strain of E. coli, and the proteins were expressed and purified using Nickel-NTA agarose beads from Qiagen following the protocol for native batch purification provided by Qiagen. […] Protein concentrations were determined by the absorbance at 280 nm using extinction coefficients of 45840 M^−1 cm^−1, 45840 M^−1 cm^−1 and 30370 M^−1 cm^−1, for Hxk1, Hxk2 and Glk1, respectively. […]

The target of assay [3] is S. cerevisiae hexokinase Hxk2 (NP_011261) (Saccharomyces cerevisiae, UniProt P04807). Briefly: Effect of cellobiose on activity of purified hexokinase Hxk2. The format is biochemical. The note with it: read-out: reduction of hexokinase activity by cellobiose. The method, then:
as §1, §2, §3

Assay [4] addresses S. cerevisiae hexokinase Hxk1 (NP_116711) (Saccharomyces cerevisiae, UniProt P04806). Briefly: Effect of cellobiose on activity of purified hexokinase Hxk1. In kind it is biochemical. The note with it: Hxk1, up to 184 mM cellobiose. Here is the method: as §1, §2, §3

S. cerevisiae hexokinase Hxk2 (NP_011261), sequence (P04807 whole entry): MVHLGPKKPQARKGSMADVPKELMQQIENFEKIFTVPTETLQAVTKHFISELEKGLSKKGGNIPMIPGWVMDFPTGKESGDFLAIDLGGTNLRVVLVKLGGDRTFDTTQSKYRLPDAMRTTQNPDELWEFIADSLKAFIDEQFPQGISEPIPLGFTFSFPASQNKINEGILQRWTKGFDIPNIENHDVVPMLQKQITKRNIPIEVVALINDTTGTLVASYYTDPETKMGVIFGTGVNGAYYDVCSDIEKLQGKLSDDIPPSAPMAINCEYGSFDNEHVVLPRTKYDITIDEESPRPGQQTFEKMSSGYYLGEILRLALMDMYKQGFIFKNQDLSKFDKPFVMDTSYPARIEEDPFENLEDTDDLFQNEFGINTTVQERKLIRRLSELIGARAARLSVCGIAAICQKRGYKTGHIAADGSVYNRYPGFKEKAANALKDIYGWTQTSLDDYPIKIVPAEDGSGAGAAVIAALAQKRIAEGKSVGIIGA
S. cerevisiae hexokinase Hxk1 (NP_116711), sequence (P04806 whole entry): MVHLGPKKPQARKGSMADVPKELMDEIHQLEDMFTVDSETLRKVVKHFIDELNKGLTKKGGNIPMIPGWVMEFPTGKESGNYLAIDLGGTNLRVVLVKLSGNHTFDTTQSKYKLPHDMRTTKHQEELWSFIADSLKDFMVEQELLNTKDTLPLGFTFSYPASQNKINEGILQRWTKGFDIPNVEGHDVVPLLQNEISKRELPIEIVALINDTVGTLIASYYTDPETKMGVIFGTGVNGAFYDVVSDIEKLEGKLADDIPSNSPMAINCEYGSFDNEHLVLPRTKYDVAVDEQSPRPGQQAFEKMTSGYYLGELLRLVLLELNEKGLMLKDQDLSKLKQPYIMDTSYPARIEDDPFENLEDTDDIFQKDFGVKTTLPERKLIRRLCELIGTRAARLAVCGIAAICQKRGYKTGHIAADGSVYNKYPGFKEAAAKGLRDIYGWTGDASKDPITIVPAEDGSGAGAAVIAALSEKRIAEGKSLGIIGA
S. cerevisiae hexokinase Glk1 (NP_009890), sequence (P17709 whole entry): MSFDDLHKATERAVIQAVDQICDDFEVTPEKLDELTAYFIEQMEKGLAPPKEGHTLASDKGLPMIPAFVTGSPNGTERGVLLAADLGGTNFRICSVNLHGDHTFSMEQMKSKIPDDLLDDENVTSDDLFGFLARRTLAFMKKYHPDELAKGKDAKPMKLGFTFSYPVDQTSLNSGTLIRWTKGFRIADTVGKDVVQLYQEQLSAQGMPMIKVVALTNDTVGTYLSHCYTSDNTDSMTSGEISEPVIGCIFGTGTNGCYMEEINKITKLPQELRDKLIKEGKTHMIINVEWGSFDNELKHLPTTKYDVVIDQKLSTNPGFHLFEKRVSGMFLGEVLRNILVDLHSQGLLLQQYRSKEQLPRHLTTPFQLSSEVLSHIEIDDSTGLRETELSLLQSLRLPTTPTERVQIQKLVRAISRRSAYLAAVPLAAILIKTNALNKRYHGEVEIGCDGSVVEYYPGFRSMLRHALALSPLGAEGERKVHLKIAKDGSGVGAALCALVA

`OC[C@H]1O[C@@H](O[C@H]2[C@H](O)[C@@H](O)C(O)O[C@@H]2CO)[C@H](O)[C@@H](O)[C@@H]1O` (stereo partly shown) [cellobiose]: the Vmax in assay [1] stood at 0.60 ± 0.03 µmol/s. The inhibition at 184000 µM in assay [2] and in assay [3] was roughly 20% throughout. Besides, the “effect of cellobiose on hexokinase activity” value in assay [4] was “unaffected”.
